Measured values taken from US20030181401A1, “Insulin secretion promoter” (KYOWA HAKKO KOGYO CO., LTD., priority 2002, published 2003).
Several values for one entry are separate records, joined by “and”; a condition that tells them apart may be missing. Identical values can stand only once.

Tests used:
Format in all cases: in vivo
ICR mice = assay: Test Example 8: blood glucose in glucose tolerance test after single oral 2′-FL dose
Protocol: Groups of male 8-week-old ICR mice (Japan SLC, Inc.) each consisting of 6 mice were fed CE-2 (Clea Japan, Inc.) for one week, so as to accustom the animals to the environment.
Then, the mice accustomed were fasted for 18 hours. An aqueous 2% solution of 2′-FL was orally administered to the mice to 100 mg (2′-FL)/kg body weight, while 0.9% saline was administered orally to the control group. Two hours after the 2′-FL dosing, an aqueous 40% glucose solution was orally administered to 2 g (glucose)/kg body weight to the mice, for glucose tolerance test. […] Blood glucose was assayed with a simple-type blood glucose assay apparatus Medisafe Reader GR-101 (Terumo, Co., Ltd.), while the serum was collected.

[1] = test system: STZ-induced diabetic rats (Wistar); assay: Test Example 9: blood glucose in glucose tolerance test, Type I diabetes mellitus model
Protocol: Male 7-week-old Wistar rats (Japan SLC, Inc.) were fed CE-2 (Clea Japan, Inc.) for one week, so as to accustom the rats to the environment.
After 18-hour starvation of the accustomed rats, […] of 50 mM citrate buffer, pH 4.5containing 15 mg of streptozotocin (WAKO Pure Chemical Industries, Inc.; abbreviated as “STZ” hereinafter) was prepared and administered to 25 mg (STZ)/kg body weight from their tail vein. Five days after the STZ administration, the rats were fasted for 18 hours. Blood was taken from puncture in the tail vein to assay blood glucose with a simple-type blood glucose assay apparatus Medisafe Reader GR-101 (Terumo, Co., Ltd.), to select 5 rats (Nos. 1, 3, 4, 5, 8) at mild state of diabetes mellitus with a blood glucose level of 200 mg/dl or less.
An aqueous 2% solution of 2′-fucosyllactose was prepared and administered to the rat No. 1 from the tail vein to 50 mg/kg body weight on a 2′-FL dose basis. 0.9% physiological saline was administered to rats Nos. 3, 4, 5 and 8. Two hours after 2′-FL dosing, an aqueous 40% glucose solution was orally administered to 1 g/kg body weight to the rats for glucose tolerance test. Zero minute and 30, 60, 120, and 240 minutes after glucose loading, blood was taken from a tail vein, to assay blood glucose with Medisafe Reader GR-101 and collect the serum.
12 days after the STZ dosing, the rats were fasted for 18 hours. An aqueous 2% solution of 2′-FL at 50 mg (2′-FL)/kg body weight was administered to rats Nos. 3, 4, 5 and 8 on a 2′-FL dose basis through their tail veins. To the rat No. 1 was administered 0.9% physiological saline. Two hours after 2′-FL dosing, an aqueous 40% glucose solution was orally administered to 1 g (glucose)/kg body weight to the rats, for glucose tolerance test. Zero minute and 30, 60, 120, and 240 minutes after glucose loading, blood was taken from a tail vein, to assay blood glucose with Medisafe Reader GR-101 and collect the serum.

db/db mice = assay: Test Example 4: serum insulin in glucose tolerance test after 7-day oral dosing of saccharides
Protocol: Groups of male 9-week-old db/db mice (Clea Japan, Inc.) each consisting of 6 mice were fed CE-2 (Clea Japan, Inc.) for one week, so as to accustom the animals to the environment.
After acclimation, individual aqueous 10% solutions of 3′-sialyllactose (abbreviated as “3′-SL” hereinafter), 6′-sialylactose (abbreviated as “6′-SL”) and 2′-FL were orally administered to the mice at 200 mg (saccharide)/kg body weight in the morning and at 300 mg (saccharide)/kg body weight in the evening. The both volume of saline was administered to the control group. The individual aqueous saccharide solutions and saline were both dosed daily to the mice for 7 days. During the dosing period, CE-2 was given together with drinking water ad libitum.
After 18-hour starvation from the final dosing on day 7, an aqueous 40% glucose solution was orally administered to 2 g (glucose)/kg body weight to the mice, to perform glucose tolerance test. Zero minute and 30 minutes after glucose loading, blood was taken from a tail vein. […] Blood was centrifuged (4° C., 10000 rpm, 10 minutes), to obtain serum.
Insulin in the serum recovered was assayed by enzyme immunoassay using Lebis Insulin kit (for rats-T) (Shibayagi, Co., Ltd.) in the same manner as in the Test Example 1.

Substance: 2′-fucosyllactose [2′-FL]
- Blood glucose level after glucose loading, 0 minute (ICR mice; ICR mice fasted 18 hours, 100 mg/kg single oral dose two hours before glucose 2 g/kg oral, 0 minute, mean ± SD): 109 ± 4.4 mg/dL
- Blood glucose level after glucose loading, 60 minutes (ICR mice; ICR mice fasted 18 hours, 100 mg/kg single oral dose two hours before glucose 2 g/kg oral, 60 minutes, mean ± SD): 219 ± 29 mg/dL
- Blood glucose level after glucose loading, 120 minutes (ICR mice; ICR mice fasted 18 hours, 100 mg/kg single oral dose two hours before glucose 2 g/kg oral, 120 minutes, mean ± SD): 147 ± 14.2 mg/dL
- Blood glucose level after glucose loading, −120 minutes (ICR mice; ICR mice fasted 18 hours, 100 mg/kg single oral dose two hours before glucose 2 g/kg oral, −120 minutes, mean ± SD): 131 ± 23.6 mg/dL
- elevation of blood glucose level (in words) (ICR mice; ICR mice, single oral dosing 120 minutes before glucose dosing): suppressed
- increase of blood glucose level (in words) ([1]; STZ-induced diabetic rats, glucose loading 2 hours after intravenous dosing): suppressed
- Blood glucose level after glucose loading, 0 minute ([1]; individual STZ rats Nos. 1, 3, 4, 5, 8, 50 mg/kg intravenous two hours before glucose 1 g/kg oral, 0 minute, 50 mg/kg): 135 mg/dL and 186 mg/dL and 97 mg/dL and 134 mg/dL and 138 mg/dL
- Blood glucose level after glucose loading, 30 minutes ([1]; individual STZ rats Nos. 1, 3, 4, 5, 8, 50 mg/kg intravenous two hours before glucose 1 g/kg oral, 30 minutes, 50 mg/kg): 167 mg/dL and 273 mg/dL and 237 mg/dL and 162 mg/dL and 152 mg/dL
- Blood glucose level after glucose loading, 60 minutes ([1]; individual STZ rats Nos. 1, 3, 4, 5, 8, 50 mg/kg intravenous two hours before glucose 1 g/kg oral, 60 minutes, 50 mg/kg): 172 mg/dL and 355 mg/dL and 253 mg/dL and 154 mg/dL and 158 mg/dL
- Blood glucose level after glucose loading, 120 minutes ([1]; individual STZ rats Nos. 1, 3, 4, 5, 8, 50 mg/kg intravenous two hours before glucose 1 g/kg oral, 120 minutes, 50 mg/kg): 181 mg/dL and 342 mg/dL and 224 mg/dL and 161 mg/dL and 136 mg/dL
- Blood glucose level after glucose loading, 240 minutes ([1]; individual STZ rats Nos. 1, 3, 4, 5, 8, 50 mg/kg intravenous two hours before glucose 1 g/kg oral, 240 minutes, 50 mg/kg): 146 mg/dl and 328 mg/dl and 139 mg/dl (2×) and 50 mg/dl
- Blood glucose level after glucose loading, −120 minutes ([1]; individual STZ rats Nos. 1, 3, 4, 5, 8, 50 mg/kg intravenous two hours before glucose 1 g/kg oral, −120 minutes, 50 mg/kg): 108 mg/dL and 197 mg/dL and 122 mg/dL and 121 mg/dL and 117 mg/dL
- serum insulin concentration during glucose loading compared with the control group (in words) (db/db mice; continuous daily oral dosing): increased
- Serum insulin concentration after glucose loading, 30 minutes (db/db mice; oral 200 + 300 mg/kg daily, 7 days, glucose 2 g/kg oral, 30 minutes, mean ± SD): 8.3 ± 3.9 ng/mL
- Serum insulin concentration after glucose loading, 120 minutes (db/db mice; oral 200 + 300 mg/kg daily, 7 days, glucose 2 g/kg oral, 120 minutes, mean ± SD): 26.1 ± 12.9 ng/mL
- Serum insulin concentration after glucose loading, Zero minute (db/db mice; oral 200 + 300 mg/kg daily, 7 days, glucose 2 g/kg oral, zero minute, mean ± SD): 6.7 ± 3.3 ng/mL
